Source: patent US10457709B2, “Antimicrobial peptides, their variants and uses” (priority 2015, dated 2019)
Where two headings read alike, the source gives them in different places. Square brackets hold non-standard residues; d marks the D form. Peptide text beside a SMILES is read from it.

How the values were obtained:
[1] = test system: MRSA strains (S. aureus COL); assay: MIC, synergistic activity with Ertapenem (4 μg/ml); format: cell-based, Staphylococcus aureus; conditions: Ertapenem 4 μg/ml; D-form peptide
Method: Minimum inhibition concentrations (MICs) were determined against Escherichia coli (ATCC 25922), Staphylococcus aureus (ATCC 25923), Klebsiella pneumoniae (ATCC 10031) and Pseudomonas aeruginosa (ATCC 27853). Also clinical strains of E. coli, K. pneumoniae, E. cloacae, P. aeruginosa, Serratia marcescens, Proteus mirabilis, S. pneumoniae, Acinetobacter baumannii, A. johnsonii and S. aureus were used for MICs assays. Additionally, clinical strains of yeast including Candida albicans, C. glabrata, C. parapsilosis and C. quillermondiae were used. The susceptibility of these microorganisms to Chain peptides were determined using micro broth dilution assay. Colonies of the respective microorganism from Muller Hinton (MH) agar plates incubated overnight were suspended in MH broth media and final concentration of microorganism was adjusted to 5.0×10^5 cfu/ml. An aliquot of 10 μl of each Chain peptide, or gentamicin, tetracycline as reference antibiotics were added in differing concentrations along with 90 μl of bacterial suspension to 96 well polypropylene plates and incubated at 37° C. for 20 to 24 hours. Concentrations of Chain peptides and reference antibiotics ranged from 0.125 to 128 μg/ml and the MICs were recorded as the lowest concentration with no visual growth of bacteria. Similarly, antifungal MICs were tested in Potato dextrose broth.
Peptides Chain 104, Chain 105, Chain 201, Chain 308, Chain 310 were tested against antibiotic-sensitive strains of S. aureus RN4220 and methicillin resistant strains of S. aureus COL (MRSA). Chain peptides comprising of either L- or D-form amino acids were tested against these bacteria, and the D-form peptides were found have better activity compared to L-form (Table 6). Synergistic activity of chain peptides along with Ertapenem (4 μg/ml) was tested to know whether it will influence the activity against MRSA strains. […] Chain 310 has the best antibacterial activity against the MRSA strains with a MIC of 0.06 & 0.03 μg/ml along with Ertapenem (4 μg/ml) for both forms of L and D-peptides (Table 6).

[2] = test system: Escherichia coli (ATCC 25922); format: cell-based; conditions: Peptides 50 μg, Gentamycin 5 μg, diameter including the wells
Method: (§1) The radial diffusion assay (RDA) was carried out as described by Andersen et al. (2010). Briefly, 30 ml of 1/10 Muller-Hinton broth (MHB) supplemented with 1% agarose and 5.0×10^5 CFU/ml S. aureus or E. coli or K. pneumoniae, P. aeruginosa cells was poured into a single-well omnitray (Nunc) and overlaid with a TSP 96-well plate. […] The peptides were also tested against Fusarium oxysporum and Verticillium dahliae, for which ⅓ potato dextrose agarose was used. To test the synergistic effect of peptides, each peptide was mixed in equimolar concentrations. Mix1 (met1-12), Mix2 (met3, 4 and 5), Mix3 (met8, 9 and 10), Mix4 (met11, 12) and Mix5 (8, 9, 10, 11, 12) were prepared and tested against E. coli and S. aureus. Gentamicin and vancomycin were included as positive controls for bacteria and amphotericin B was used as the control for fungi.
(§2) By using rational design techniques, we have designed variants of peptides by incorporating or replacing various amino acids in the original peptides. Thus, we have designed and modified Chain 100, Chain 200 and Chain 300 with tryptophan (W), arginine (R) and lysine (K) at various positions to improve antimicrobial activity (FIGS. 4a-c and 5a-c). In some peptides we have also used other amino acids such as Leucine (L), Cysteine (C), Isoleucine (I), Phenylalanine (F) and Alanine (A). For synthesis, 32 variants and 3 original peptides were selected based on the various parameters such as positive charge, aliphatic index and instability index. Peptides variants were tested by using radial diffusion assay against Escherichia coli (ATCC 25922), Staphylococcus aureus (ATCC 25923), Klebsiella pneumoniae (ATCC 10031) and Pseudomonas aeruginosa (ATCC 27853) (FIGS. 6a-c). The zone of inhibition ranged between 10-18 mm for Escherichia coli and Staphylococcus aureus, 6-18 mm & 8-18 mm for Pseudomonas aeruginosa and Klebsiella pneumonia respectively (Table 2). For Gentamicin it was between 22-24 mm. Antifungal activity was tested for promising antibacterial peptides (Chains 104, 105, 109, 201, 204, 306, 307, 308, 310) against Aspergillus flavus (DSM 1959) and Penicillium chrysogenum (DSM 1075). All these peptides has activity at a concentration of 20 μg, Amphotericin B was used as a positive control at 20 μg (FIG. 7).

[3] = test system: Pseudomonas aeruginosa (ATCC 27853); format: cell-based; conditions: Peptides 50 μg, Gentamycin 5 μg, diameter including the wells
Method: as §1, §2

[4] = test system: Klebsiella pneumoniae (ATCC 10031); format: cell-based; conditions: Peptides 50 μg, Gentamycin 5 μg, diameter including the wells
Method: as §1, §2

[5] = test system: Staphylococcus aureus (ATCC 25923); format: cell-based; conditions: Peptides 50 μg, Gentamycin 5 μg, diameter including the wells
Method: as §1, §2

[6] = test system: Escherichia coli (ATCC 25922); assay: microbe, parasite or virus in culture; format: cell-based
How it was run: (§3)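 Broth microdilution in Mueller-Hinton broth at 5.0×10^5 cfu/ml, peptides tested from 0.125 to 128 μg/ml in polypropylene plates.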

[7] = test system: Pseudomonas aeruginosa (ATCC 27853); assay: microbe, parasite or virus in culture; format: cell-based
How it was run: as §3

[8] = test system: Klebsiella pneumoniae (ATCC 10031); assay: microbe, parasite or virus in culture; format: cell-based
How it was run: as §3

Compound | MIC against MRSA strains along with Ertapenem [1] [µg/mL] | Inhibition zone, Escherichia coli [2] | Inhibition zone, Escherichia coli ([2]; listed as Gentamycin) [mm] | Inhibition zone, Pseudomonas aeruginosa [3] | Inhibition zone, Pseudomonas aeruginosa ([3]; listed as Gentamycin) [mm] | Inhibition zone, Klebsiella pneumoniae [4] | Inhibition zone, Klebsiella pneumoniae ([4]; listed as Gentamycin) [mm] | Inhibition zone, Staphylococcus aureus [5] | Inhibition zone, Staphylococcus aureus ([5]; listed as Gentamycin) [mm] | Minimum inhibitory concentration, Escherichia coli (ATCC 25922) [6] [µg/mL] | Minimum inhibitory concentration, Pseudomonas aeruginosa (ATCC 27853) [7] [µg/mL] | Minimum inhibitory concentration, Klebsiella pneumoniae (ATCC 10031) [8] [µg/mL]
CC(C)C[C@@H](NC(=O)[C@@H](CCCCN)NC(=O)[C@@H](CCCCN)NC(=O)[C@@H](Cc1ccccc1)NC(=O)[C@@H](CC(C)C)NC(=O)[C@@H](Cc1c[nH]c2ccccc12)NC(=O)[C@@H](CCCNC(=N)N)NC(=O)[C@@H](Cc1c[nH]c2ccccc12)NC(=O)[C@@H](CCCCN)NC(=O)[C@@H](CCCNC(=N)N)NC(=O)[C@H](N)CCCCN)C(=O)O [Chain310D] (H-[dK][dR][dK][dW][dR][dW][dL][dF][dK][dK][dL]-OH) | 0.03 | – | – | – | – | – | – | – | – | – | – | –
Gentamicin [reference compound] | – | 22-24 mm | 22 | 22-24 mm | 24 | 22-24 mm | 22 | 22-24 mm | 24 | 1 | 0.25 | 0.25
